Target: T1, human heart chymase (Homo sapiens, UniProt P23946)
T1 sequence (P23946 22-247): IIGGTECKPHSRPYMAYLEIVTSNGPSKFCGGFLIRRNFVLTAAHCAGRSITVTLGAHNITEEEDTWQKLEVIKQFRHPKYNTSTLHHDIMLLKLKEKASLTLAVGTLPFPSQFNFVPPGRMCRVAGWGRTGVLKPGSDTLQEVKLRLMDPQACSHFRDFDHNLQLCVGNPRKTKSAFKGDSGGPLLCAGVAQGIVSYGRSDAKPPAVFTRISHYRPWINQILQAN
Assay: biochemical
Conditions: Chymase inhibitive activity (IC50), Ang I substrate, 37° C., 30 min, pH 7.5
Method: That is, to 10 μl of a 20 mM trisphosphate buffer (pH 7.5) containing 2MKCl were added 10 μl of purified chymase and 5 μl of a dimethylsulfoxide (hereinafter referred to as DMSO) solution of the test sample. The mixture was preincubated at 37° C. for 10 minutes, then 25 μl of a 1 mM Ang I solution was added and the mixture preincubated at 37° C. for 30 minutes. Next, 50 μl of 30% acetic acid was added to stop the enzymatic reaction. At the same time, a blind test was performed by adding, instead of the test sample solution, 5 μl of DMSO and performing the same reaction.
The reacted solution was subjected to high performance liquid chromatography using Develosil ODS-5 (made by Nomura Kagaku, .phi.4.6 mm×150 mm) and developed at a flow rate of 2.0 ml/min in 0.05% TFA by a straight concentration gradient raising the acetonitrile from 0% to 60% over 10 minutes. This was monitored by the absorbance at 210 nm and the peaks identified by comparison with standard samples of Ang I and Ang II. The peak areas were measured by an integrating meter to quantitatively analyze the Ang I and Ang II and calculate the chymase activity.

| SMILES | IC50 |
| --- | --- |
| O=C(O)c1cccc(Cn2c(=O)n(S(=O)(=O)c3ccc(Cl)cc3)c(=O)c3ccc(Cl)cc32)c1 [Example 66, 1-(3-carboxybenzyl)-7-chloro-3-(4-chlorobenzenesulfonyl)-2,4(1H,3H)-quinazolinedione] | 240 nM |
| CC[n+]1cccc(NC(=O)Cn2c(=O)n(S(=O)(=O)c3ccc(Cl)cc3)c(=O)c3ccc(Cl)cc32)c1 [Example 56, 3-{[7-chloro-3-(4-chlorobenzenesulfonyl)-2,4(1H,3H)-quinazolinedion-1-yl]acetylamino}-N-ethylpyridinium iodide] | 31 nM |
| O=C(Cn1c(=O)n(S(=O)(=O)c2ccc(Cl)cc2)c(=O)c2ccc(Cl)cc21)Nc1ccccc1O [Example 41, [7-chloro-3-(4-chlorobenzenesulfonyl)-2,4(1H,3H)-quinazolinedion-1-yl]-N-(2-hydroxyphenyl)acetamide] | 310 nM |
| N[C@@H](CC(=O)NCc1cccc(NC(=O)Cn2c(=O)n(S(=O)(=O)c3ccc(Cl)cc3)c(=O)c3ccc(Cl)cc32)c1)C(=O)O [Example 52, [7-chloro-3-(4-chlorobenzenesulfonyl)-2,4(1H,3H)-quinazolinedion-1-yl]-N-(3-β-L-aspartylaminomethylphenyl)acetamide] | 110 nM |
| O=C(Cn1c(=O)n(S(=O)(=O)c2ccc(Cl)cc2)c(=O)c2ccc(Cl)cc21)Nc1cccnc1 [Example 53, [7-chloro-3-(4-chlorobenzenesulfonyl)-2,4(1H,3H)-quinazolinedion-1-yl]-N-(3-pyridyl)acetamide] | 50 nM |
| O=c1c2ccc(Cl)cc2n(Cc2ccccc2)c(=O)n1S(=O)(=O)c1ccc(Cl)cc1 [Example 59, 1-benzyl-7-chloro-3-(4-chlorobenzenesulfonyl)-2,4(1H,3H )-quinazolinedione] | 370 nM |
| O=C(Cn1c(=O)n(S(=O)(=O)c2ccc(Cl)cc2)c(=O)c2ccc(Cl)cc21)Nc1cccc(OP(=O)(O)O)c1 [Example 105] | 25 nM |
| O=C(O)CNC(=O)c1cccc(Cn2c(=O)n(S(=O)(=O)c3ccc(Cl)cc3)c(=O)c3ccc(Cl)cc32)c1 [Example 70, 3-(7-chloro-3-(4-chlorobenzenesulfonyl)-2,4(1H,3H)-quinazolinedion-1-yl)methylbenzoylglycine] | 230 nM |
| O=C(O)CCC(=O)Nc1ccc(Cn2c(=O)n(S(=O)(=O)c3ccc(Cl)cc3)c(=O)c3ccc(Cl)cc32)cc1 [Example 73] | 2300 nM |
| O=C(Cn1c(=O)n(S(=O)(=O)c2ccc(Cl)cc2)c(=O)c2ccc(Cl)cc21)Nc1cccc(O)c1 [Example 40, [7-chloro-3-(4-chlorobenzenesulfonyl)-2,4(1H,3H)-quinazolinedion-1-yl]-N-(3-hydroxyphenyl)acetamide] | 110 nM |
| O=C(Cn1c(=O)n(S(=O)(=O)c2ccc(Cl)cc2)c(=O)c2ccc(Cl)cc21)Nc1ccccc1 [Example 38, [7-chloro-3-(4-chlorobenzenesulfonyl)-2,4(1H,3H)-quinazolinedion-1-yl]-N-phenylacetamide] | 63 nM |
| O=C(Cn1c(=O)n(S(=O)(=O)c2ccc(Cl)cc2)c(=O)c2ccc(Cl)cc21)Nc1ccc(CN2CCOCC2)cc1 [Example 44, [7-chloro-3-(4-chlorobenzenesulfonyl)-2,4(1H,3H)-quinazolinedion-1-yl]-N-(4-morpholinomethylphenyl)acetamide] | 560 nM |
| O=C(O)C[n+]1cccc(NC(=O)Cn2c(=O)n(S(=O)(=O)c3ccc(Cl)cc3)c(=O)c3ccc(Cl)cc32)c1 [Example 84, 3-{[7-chloro-3-(4-chlorobenzenesulfonyl)-2,4(1H,3H)-quinazolinedion-1-yl]acetylamino}-N-carboxymethylpyridinium bromide] | 43 nM |
| O=C(Cn1c(=O)n(S(=O)(=O)c2ccc(Cl)cc2)c(=O)c2ccc(Cl)cc21)Nc1ccccn1 [Example 55, [7-chloro-3-(4-chlorobenzenesulfonyl)-2,4(1H,3H)-quinazolinedion-1-yl]-N-(2-pyridyl)acetamide] | 72 nM |
| NCc1ccc(NC(=O)Cn2c(=O)n(S(=O)(=O)c3ccc(Cl)cc3)c(=O)c3ccc(Cl)cc32)cc1 [Example 46, [7-chloro-3-(4-chlorobenzenesulfonyl)-2,4(1H,3H)-quinazolinedion-1-yl]-N-(4-aminomethylphenyl)acetamide] | 320 nM |
| N[C@@H](CC(=O)O)C(=O)NCc1ccc(NC(=O)Cn2c(=O)n(S(=O)(=O)c3ccc(Cl)cc3)c(=O)c3ccc(Cl)cc32)cc1 [Example 48, [7-chloro-3-(4-chlorobenzenesulfonyl)-2,4(1H,3H)-quinazolinedion-1-yl]-N-(4-α-L-aspartylaminomethylphenyl)acetamide] | 500 nM |

Continued, values first:

| IC50 | SMILES |
| --- | --- |
| 170 nM | Cc1ccc(S(=O)(=O)n2c(=O)c3ccc(Cl)cc3n(CC(=O)Nc3cccnc3)c2=O)cc1 [Example 94, [7-chloro-3-(4-methylbenzenesulfonyl)-2,4(1H,3H)-quinazolinedion-1-yl]-N-(3-pyridyl)acetamide] |
| 1800 nM | O=c1[nH]c2cc(Cl)ccc2c(=O)n1S(=O)(=O)c1ccc(Cl)cc1F [Example 134, 7-chloro-3-(4-chloro-2-fluorobenzenesulfonyl)-2,4(1H,3H)-quinazolinedione] |
| 180 nM | O=C(Cn1c(=O)n(S(=O)(=O)c2ccc(Cl)cc2)c(=O)c2ccc(Cl)cc21)Nc1cccc2ncccc12 [Example 91, [7-chloro-3-(4-chlorobenzenesulfonyl)-2,4(1H,3H)-quinazolinedion-1-yl]-N-(5-quinolyl)acetamide] |
| 4600 nM | Cn1ccc(S(=O)(=O)n2c(=O)c3ccc(Cl)cc3n(CC(=O)Nc3cccnc3)c2=O)c1 [Example 103, [7-chloro-3-(1-methylpyrrole-3-sulfonyl)-2,4(1H,3H)-quinazolinedion-1-yl]-N-(3-pyridyl)acetamide] |
| 210 nM | N[C@@H](Cc1ccc(NC(=O)Cn2c(=O)n(S(=O)(=O)c3ccc(Cl)cc3)c(=O)c3ccc(Cl)cc32)cc1)C(=O)O [Example 99, [7-chloro-3-(4-chlorobenzenesulfonyl)-2,4(1H,3H)-quinazolinedion-1-yl]-N-(4-L-phenylalaninyl)acetamide] |
| 230 nM | N=C(N)Nc1ccc(Cn2c(=O)n(S(=O)(=O)c3ccc(Cl)cc3)c(=O)c3ccc(Cl)cc32)cc1 [Example 107, 7-chloro-3-(4-chlorobenzenesulfonyl)-1-(4-guanidinobenzyl)-2,4(1H,3H)-quinazolinedione] |
| 29000 nM | O=c1[nH]c2cc(Cl)ccc2c(=O)n1S(=O)(=O)c1ccc[nH]1 [Example 125, 7-chloro-3-(pyrrole-2-sulfonyl)-2,4(1H,3H)-quinazolinedione] |
| 580 nM | O=C(Cn1c(=O)n(S(=O)(=O)c2cccnc2)c(=O)c2ccc(Cl)cc21)Nc1cccnc1 [Example 123, [7-chloro-3-(pyridine-3-sulfonyl)-2,4-(1H,3H)-quinazolinedion-1-yl]-N-(3-pyridyl)acetamide] |
| 280 nM | O=C(Cn1c(=O)n(S(=O)(=O)c2ccc(Cl)cc2)c(=O)c2ccc(Cl)cc21)Nc1ccc(C(=O)O)cc1C(=O)O [Example 101, [7-chloro-3-(4-chlorobenzenesulfonyl)-2,4 (1H,3H)-quinazolinedion-1-yl]-N-(2,4-dicarboxylphenyl)acetamide] |
| 2800 nM | O=c1[nH]c2cc(O)ccc2c(=O)n1S(=O)(=O)c1ccc(Cl)cc1 [Example 151] |

Source: patent US5814631A, “Quinazoline derivatives and applications thereof” (Suntory Limited, priority 1995, dated 1998)
